The results in this text go back to patent US20060183119A1, “Method for determining predisposition to a physiological reaction in a patient” (UNIVERSITE LAVAL, priority 2002, published 2006).

The target of one data set is T1, human UGT1A9*1 (Homo sapiens, UniProt O60656).
T1 sequence (O60656 26-530): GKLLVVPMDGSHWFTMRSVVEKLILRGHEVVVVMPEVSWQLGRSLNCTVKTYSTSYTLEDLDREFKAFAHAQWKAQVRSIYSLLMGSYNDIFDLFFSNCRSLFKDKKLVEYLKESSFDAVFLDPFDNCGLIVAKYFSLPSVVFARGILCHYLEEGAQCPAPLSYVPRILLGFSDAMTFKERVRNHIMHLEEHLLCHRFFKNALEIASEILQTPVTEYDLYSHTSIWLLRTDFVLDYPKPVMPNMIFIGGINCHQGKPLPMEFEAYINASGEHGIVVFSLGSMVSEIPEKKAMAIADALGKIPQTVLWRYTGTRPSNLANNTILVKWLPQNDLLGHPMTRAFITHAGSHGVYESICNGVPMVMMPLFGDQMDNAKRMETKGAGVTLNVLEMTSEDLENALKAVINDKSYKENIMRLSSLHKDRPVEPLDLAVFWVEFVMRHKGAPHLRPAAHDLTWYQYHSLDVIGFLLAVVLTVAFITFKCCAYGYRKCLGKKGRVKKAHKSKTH
The following applies: SN-38 glucuronidation. As for the experimental part: (§1) Microsomal fractions from HEK-293 cells stably expressing human UGT1A9*1, UGT1A9*2 and UGT1A9*3 were used in enzymatic assays. Reactions (100 μl volume) contained 50 mM Tris-HCl, pH 7.3, 10 mM MgCl2, 100 μg/mL phosphatidylcholine, 1 mM UDP-glucuronic acid, 40 to 60 μg of membrane protein. […] Human liver microsome were incubated in the same condition for control. Reaction was stopped by the addition of 200 μL MeOH+1% HCl 2N, followed by centrifugation at 14000 rpm for 10 minutes. Supernatant was filtered through a 0.22 μm filter and 100 μL of water was added. For SN-38 and SN-38-glucuronide detection, 10 μL samples were injected on a liquid chromatographic system coupled to a fluorescence detector. Time-course experiments were realized to determine the linearity of the glucuronidation reaction.
(§2) A liquid chromatographic method was developed to quantify SN-38 glucuronidation of UGT cell line-derived microsomes and human liver microsomes. Samples were analyzed using high performance liquid chromatography (Alliance 2695, Waters, Milford, Mass.). […] At a constant flow rate (0.7 ml/min), a linear gradient from 20 to 65% B was run over 3 min, held 0.8 min and a second gradient until 95% of B was run over 2 min and then re-equilibrated to 20% B over 2 min. The effluent from the HPLC system (Alliance 2695) was connected directly to a fluorescence detector (Waters, Milford, Mass.) using an excitation wavelength of […] and an emission of 460 nm. […] Determination of the glucuronidation rates obtained with other substrates was performed as currently known in the art.
Microsomal fractions from HEK293 (40 to 60 μg) were added to a reaction mixture (100 μL) containing 50 mM Tris-HCl, pH 7.3, 10 mM MgCl2, 100 μg/mL phosphatidylcholine and 2 mM UDP-glucuronic acid. […] Commercially available human liver microsomes (Human Cell Culture Center Inc., Laurel, Md.) were incubated in the same conditions for all experiments. Time-course experiments were performed to determine the linearity of the glucuronidation reaction. For the determination of Vmax and Km. HEK293 cells stably expressing UGT1A9 enzymes were incubated in the presence of various concentrations of SN-38 ranging from 0.1 to 200 μM and incubated for 30 min as described above whereas UGT1A7 membranes preparations were incubated for 3 hours. […] For the detection of SN-38 and its glucuronide (SN-38G), 10 μL samples were injected in a liquid chromatographic system (HPLC) coupled to fluorescence detector as described below.
A HPLC method was developed to quantify the rates of SN-38 glucuronidation from the various microsomal fractions under study. […] The column was connected to a fluorescence detector model 474 (Waters, Milford, Mass.) and the molecules were excited at a wavelength of 370 nm and an emission of 425 nm.

The next data set has as its target T2, human UGT1A9*2 (Homo sapiens, UniProt O60656, C3Y).
T2 sequence (O60656 26-530): T1 sequence (O60656 26-530)
As to the kind of experiment: Glucuronidation by microsomes of HEK-293 cells stably expressing UGT1A9*2. The following applies: for Vmax / Km: SN-38 glucuronidation. As for the experimental part:
as §1, §2
Microsomal fractions from HEK293 (40 to 60 μg) were added to a reaction mixture (100 μL) containing 50 mM Tris-HCl, pH 7.3, 10 mM MgCl2, 100 μg/mL phosphatidylcholine and 2 mM UDP-glucuronic acid. […] Commercially available human liver microsomes (Human Cell Culture Center Inc., Laurel, Md.) were incubated in the same conditions for all experiments. Time-course experiments were performed to determine the linearity of the glucuronidation reaction. For the determination of Vmax and Km. HEK293 cells stably expressing UGT1A9 enzymes were incubated in the presence of various concentrations of SN-38 ranging from 0.1 to 200 μM and incubated for 30 min as described above whereas UGT1A7 membranes preparations were incubated for 3 hours. […] Reactions with SN-38 were stopped by the addition of 200 μL MeOH+1% HCl 2N, followed by centrifugation at 14000×g for 10 minutes. The supernatants were filtered through a 0.22 μm membrane and 100 μL of water was added to the filtrate. For the detection of SN-38 and its glucuronide (SN-38G), 10 μL samples were injected in a liquid chromatographic system (HPLC) coupled to fluorescence detector as described below.
A HPLC method was developed to quantify the rates of SN-38 glucuronidation from the various microsomal fractions under study. The HPLC system used was an Alliance 2695 (Waters, Milford, Mass.) equipped with a 50×3.2 mm Colombus C18 column (Phenomenex, Torrance, Calif.). […] Then a second gradient ranging from 65% to 95% solvent B was generated during the following 2 min. Finally, the column was re-equilibrated to 20% solvent B for 2 min. The column was connected to a fluorescence detector model 474 (Waters, Milford, Mass.) and the molecules were excited at a wavelength of 370 nm and an emission of 425 nm.

The mark [1] stands for this setting: read-out: Apparent Km, 0.1 to 200 μM, mean±SD, Lineweaver-Burk.

Molecules are shown by their SMILES. Several values for one entry are separate records, joined by “and”; a condition that tells them apart may be missing. Equal entries are not always repeated. Where two headings read alike, the source gives them in different places.

Regarding `CCc1c2c(nc3ccc(O)cc13)-c1cc3c(c(=O)n1C2)COC(=O)[C@]3(O)CC` [SN-38, 7-ethyl-10-hydroxycamptothecin], the Vmax on human UGT1A9*1 (0.1 to 200 μM, mean±SD) amounted to 316.34±52.03 pmol/min/mg protein; at human UGT1A9*1 (Table 5) it was 316.34 ± 52.03; at human UGT1A9*2 (0.1 to 200 μM, mean±SD), 324.38 ± 95.09 pmol/min/mg protein; at human UGT1A9*2 (Table 5), 324.68 ± 95.09. For the same compound, the Michaelis-Menten constant (Km) – broadly, the concentration of substrate that gives half-maximal velocity – was 3.03 ± 0.72 µM on human UGT1A9*1 (Table 5); 3.03 µM and 3.02 µM at human UGT1A9*1 (setting [1]); 5.15 ± 1.81 µM on human UGT1A9*2 (Table 5); 5.15 ± 1.81 µM on human UGT1A9*2 (setting [1]). In addition, the “effect on conjugation rate of SN-38 (in words)” value on human UGT1A9*2 (5 μM of SN-38, versus wild type) was “no significant effect”. Moreover, the “increased activity (SN-38 conjugation)” value at human UGT1A9*2 (tyrosine at codon 3, versus UGT1A9*1) is given as 16.7%.
